Consider three molecules from PMC2759517 (PLoS ONE, 2009).

One experiment concerns the target HA-tagged PA of FluA (Influenza A virus, UniProt Q2VC91). The experiment in a line: biochemical. Format: binding.
For the next experiment, the target named is T1, HA-tagged PA of FluB (Influenza B virus, UniProt Q9QLI9).
T1 construct: upstream of the initiation codon and antisense primers with a deleted stop codon; made in house; host or cells: human 293T cells, transiently transfected; unpurified cell lysate
T1 sequence (Q9QLI9 whole entry): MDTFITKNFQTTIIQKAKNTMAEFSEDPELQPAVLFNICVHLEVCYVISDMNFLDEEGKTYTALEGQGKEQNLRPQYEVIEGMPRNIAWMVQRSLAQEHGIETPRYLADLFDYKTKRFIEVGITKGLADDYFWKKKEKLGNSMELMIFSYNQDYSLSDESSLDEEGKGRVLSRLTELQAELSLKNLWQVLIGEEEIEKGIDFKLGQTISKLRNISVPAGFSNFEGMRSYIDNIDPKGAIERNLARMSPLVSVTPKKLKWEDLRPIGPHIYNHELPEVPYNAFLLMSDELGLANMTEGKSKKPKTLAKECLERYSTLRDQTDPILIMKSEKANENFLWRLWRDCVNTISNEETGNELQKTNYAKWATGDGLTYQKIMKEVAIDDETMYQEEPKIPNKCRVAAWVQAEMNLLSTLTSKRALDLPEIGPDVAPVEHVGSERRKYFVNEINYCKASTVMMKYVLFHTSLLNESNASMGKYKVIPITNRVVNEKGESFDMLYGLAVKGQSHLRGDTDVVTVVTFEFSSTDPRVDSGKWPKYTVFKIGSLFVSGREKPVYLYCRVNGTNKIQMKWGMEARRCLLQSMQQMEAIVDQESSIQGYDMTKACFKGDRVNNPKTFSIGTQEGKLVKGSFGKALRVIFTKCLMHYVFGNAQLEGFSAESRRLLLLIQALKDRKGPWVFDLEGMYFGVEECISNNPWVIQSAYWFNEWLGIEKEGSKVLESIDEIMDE
The experiment in a line: biochemical. Format: binding.

pIC50: −log10 of the molar value. Where no end group is shown, it is not given here. Some results are limits rather than exact numbers.

For MDVNPTLLFLK-NH2 [1–11], at HA-tagged PA of FluA, the pIC50 (commonly the IC50 on a negative log10 scale, so that one unit is a factor of ten) is 6.05. In the case of MNINPYFLFIDVPIQ-NH2 [PB11-15 B], at HA-tagged PA of FluB, the pIC50 is 7.35. As for `CSCC[C@H](N)C(=O)N[C@@H](CC(=O)O)C(=O)N[C@H](C(=O)N[C@@H](CC(N)=O)C(=O)N1CCC[C@H]1C(=O)N[C@H](C(=O)N[C@@H](CC(C)C)C(=O)N[C@@H](CC(C)C)C(=O)N[C@@H](Cc1ccccc1)C(=O)N[C@@H](CC(C)C)C(=O)N[C@@H](CCCCN)C(=O)N[C@H](C(=O)N1CCC[C@H]1C(=O)N[C@@H](C)C(=O)N[C@@H](CCC(N)=O)C(N)=O)C(C)C)[C@@H](C)O)C(C)C` [PB11-15 A], the pIC50 at HA-tagged PA of FluB is below 5.52.
